According to US8247610B2, “Amine linked modulators of γ-secretase” (Janssen Pharmaceutica N.V., priority 2007, dated 2012):

Target: T1, γ-secretase (Homo sapiens, UniProt P49768)
T1 construct: endogenous in cells; host or cells: SKNBE2 cells carrying APP 695 wild type
Assay: Screening for γ-secretase-modulating activity in SKNBE2 cells carrying the APP 695 wild type
Type: cell-based
Conditions: SKNBE2 cells carrying APP 695 wild type
Description: Screening of the Compounds of the Invention for γ-Secretase-Modulating Activity
Screening was carried out using SKNBE2 cells carrying the APP 695—wild type, grown in DMEM/NUT-mix F12 (HAM) provided by Gibco (cat no. 31330-38) containing 5% Serum/Fe supplemented with 1% non-essential amino acids.
Cells were grown to near confluency.
The screening was performed using the assay as described in Citron et al (1997) Nature Medicine 3: 67.

| Compound | EC50 [nM] | also measured |
| --- | --- | --- |
| CC(C)CC(C(=O)O)c1cc(-c2cc(F)cc(C(F)(F)F)c2)cc(N(C)c2cc(C(F)(F)F)cc(C(F)(F)F)c2)c1 (stereo not drawn) [Example 25, 2-[5′-Fluoro-5-(N-[3,5-bis-(trifluoromethyl)phenyl]-N-methylamino)-3′-trifluoromethyl-biphenyl-3-yl]-4-methyl-pentanoic acid] | 600 | – |
| CC(C)CC(C(=O)O)c1cc(-c2ccc(C(F)(F)F)cc2)cc(N(C)c2ccc(Cl)cc2)c1 (stereo not drawn) [Example 1, 2-{5-[(4-Chloro-phenyl)-methyl-amino]-4′-trifluoromethyl-biphenyl-3-yl}-4-methyl-pentanoic acid] | 620 | – |
| CC(C)CCN(Cc1cc(-c2ccc(C(F)(F)F)cc2)cc([C@@H](CC(C)C)C(=O)O)c1)Cc1ccc(F)c(F)c1 (stereo in doubt) [Example 5, 2-(5-{[(3,4-Difluoro-benzyl)-(3-methyl-butyl)-amino]-methyl}-4′-trifluoromethyl-biphenyl-3-yl)-4-methyl-pentanoic acid] | 65 | – |
| CC(C)CC(C(=O)O)c1cc(-c2ccc(C(F)(F)F)cc2)cc(N(C)c2cc(F)cc(F)c2)c1 (stereo not drawn) [Example 3, 2-{5-[(3,5-Difluoro-phenyl)-methyl-amino]-4′-trifluoromethyl-biphenyl-3-yl}-4-methyl-pentanoic acid] | 450 | – |
| CC(C)CC(C(=O)O)c1cc(-c2ccc(C(F)(F)F)cc2)cc(N2CCCc3ccccc32)c1 (stereo not drawn) [Compound 28, 2-[5-(3,4-Dihydro-2H-quinolin-1-yl)-4′-trifluoromethyl-biphenyl-3-yl]-4-methyl-pentanoic acid] | – | inhibition at 0.3 µM (0.3 μM): 0% |
| CC(C)CCN(Cc1ccc(C(C)(C)C)cc1)c1cc(-c2ccc(C(F)(F)F)cc2)cc(C(CC(C)C)C(=O)O)c1 (stereo not drawn) [Compound 39, 2-{5-[(4-tert-Butyl-benzyl)-(3-methyl-butyl)-amino]-4′-trifluoromethyl-biphenyl-3-yl}-4-methyl-pentanoic acid] | 580 | – |
| CC(C)CCC(Nc1cc(-c2ccc(C(F)(F)F)cc2)cc(C(CC(C)C)C(=O)O)c1)c1cc(F)cc(F)c1 (stereo not drawn) [Compound 29, 2-{5-[1-(3,5-Difluoro-phenyl)-4-methyl-pentylamino]-4′-trifluoromethyl-biphenyl-3-yl}-4-methyl-pentanoic acid] | 300 | – |
| CC(C)CC(C(=O)O)c1cc(-c2ccc(C(F)(F)F)cc2)cc(N(C)c2ccc(C(C)C)cc2)c1 (stereo not drawn) [Example 7, 2-{5-[(4-Isopropyl-phenyl)-methyl-amino]-4′-trifluoromethyl-biphenyl-3-yl}-4-methyl-pentanoic acid] | – | % printed in the EC50 column, no concentration given (concentration not given): 8% |
| CC(C)CCN(c1ccc(Cl)cc1)c1cc(-c2ccc(C(F)(F)F)cc2)cc(C(CC(C)C)C(=O)O)c1 (stereo not drawn) [Example 18, 2-{5-[(4-Chloro-phenyl)-(3-methyl-butyl)-amino]-4′-trifluoromethyl-biphenyl-3-yl}-4-methyl-pentanoic acid] | 150 | – |
| CC(C)CC(C(=O)O)c1cc(-c2ccc(C(F)(F)F)cc2)cc(N2CCc3ccccc32)c1 (stereo not drawn) [Example 24, 2-[5-(2,3-Dihydro-indol-1-yl)-4′-trifluoromethyl-biphenyl-3-yl]-4-methyl-pentanoic acid] | – | inhibition at 0.3 µM (0.3 μM): 0% |
| CCN(c1cc(-c2ccc(C(F)(F)F)cc2)cc(C(CC(C)C)C(=O)O)c1)c1cccc(C(F)(F)F)c1 (stereo not drawn) [Example 13, 2-{5-[Ethyl-(3-trifluoromethyl-phenyl)-amino]-4′-trifluoromethyl-biphenyl-3-yl}-4-methyl-pentanoic acid] | – | inhibition at 0.3 µM (0.3 μM): 16% |
| CC(C)CC(C(=O)O)c1cc(-c2ccc(C(F)(F)F)cc2)cc(N(C)c2cc[n+](C)cc2)c1 (stereo not drawn) [Example 16, 4-{[5-(1-Carboxy-3-methyl-butyl)-4′-trifluoromethyl-biphenyl-3-yl]-methyl-amino}-1-methyl-pyridinium] | – | inhibition at 0.3 µM (0.3 μM): 13% |
| CC(C)CC(C(=O)O)c1cc(-c2ccc(C(F)(F)F)cc2)cc(N(C)c2ccc(C(F)(F)F)nc2)c1 (stereo not drawn) [Example 15, 4-Methyl-2-{5-[methyl-(6-trifluoromethyl-pyridin-3-yl)-amino]-4′-trifluoromethyl-biphenyl-3-yl}-pentanoic acid] | 850 | – |
| CC(C)C[C@@H](C(=O)O)c1cc(NCc2ccc(OC(F)(F)F)cc2)cc(-c2ccc(C(F)(F)F)cc2)c1 [Compound 41, 4-Methyl-2-[5-(4-trifluoromethoxy-benzylamino)-4′-trifluoromethyl-biphenyl-3-yl]-pentanoic acid] | – | inhibition at 0.3 µM (0.3 μM): 0% |
| CC(C)CCN(Cc1cc(-c2ccc(C(F)(F)F)cc2)cc(C(CC(C)C)C(=O)O)c1)Cc1cccc(C(F)(F)F)c1 (stereo not drawn) [Compound 61, 4-Methyl-2-(5-{[(3-methyl-butyl)-(3-trifluoromethyl-benzyl)-amino]-methyl}-4′-trifluoromethyl-biphenyl-3-yl)-pentanoic acid] | 390 | – |
| CC(C)CCN(Cc1cc(-c2ccc(C(F)(F)F)cc2)cc(C(CC(C)C)C(=O)O)c1)Cc1cc(F)c(F)c(F)c1 (stereo not drawn) [Compound 54, 4-Methyl-2-(5-{[(3-methyl-butyl)-(3,4,5-trifluoro-benzyl)-amino]-methyl}-4′-trifluoromethyl-biphenyl-3-yl)-pentanoic acid] | 270 | – |
| CC(C)CC(C(=O)O)c1cc(-c2ccc(C(F)(F)F)cc2)cc(N(C)c2ccc(Cl)cc2)c1 (single isomer, unassigned) [Example 21, (R*)2-{5-[(4-Chloro-phenyl)-methyl-amino]-4′-trifluoromethyl-biphenyl-3-yl}-4-methyl-pentanoic acid] | 1130 | – |
| CC(C)CCN(Cc1ccc(F)cc1)Cc1cc(-c2ccc(C(F)(F)F)cc2)cc(C(CC(C)C)C(=O)O)c1 (stereo not drawn) [Compound 62, 2-(5-{[(4-Fluoro-benzyl)-(3-methyl-butyl)-amino]-methyl}-4′-trifluoromethyl-biphenyl-3-yl)-4-methyl-pentanoic acid] | 130 | – |
| CC(C)CC(=O)N(c1ccc(Cl)cc1)c1cc(-c2ccc(C(F)(F)F)cc2)cc(C(CC(C)C)C(=O)O)c1 (stereo not drawn) [Example 23, 2-{5-[(4-Chloro-phenyl)-(3-methyl-butyryl)-amino]-4′-trifluoromethyl-biphenyl-3-yl}-4-methyl-pentanoic acid] | – | inhibition at 0.3 µM (0.3 μM): 21% |
| 2-(5-(2,4-difluorobenzylamino)-4′-(trifluoromethyl)biphenyl-3-yl)-4-methyl pentanoic acid [Compound 52] | – | inhibition @ 0.3 μM (0.3 μM): 0% inhi- bition @ 0.3 μM |
| CCN(c1ccc(Cl)cc1)c1cc(-c2ccc(C(F)(F)F)cc2)cc(C(CC(C)C)C(=O)O)c1 (stereo not drawn) [Example 14, 2-{5-[(4-Chloro-phenyl)-ethyl-amino]-4′-trifluoromethyl-biphenyl-3-yl}-4-methyl-pentanoic acid] | – | inhibition at 0.3 µM (0.3 μM): 14% |
| CC(C)CCC(Nc1cc(-c2ccc(C(F)(F)F)cc2)cc(C(CC(C)C)C(=O)O)c1)c1cc(C(F)(F)F)cc(C(F)(F)F)c1 (stereo not drawn) [Compound 30, 2-{5-[1-(3,5-Bis-trifluoromethyl-phenyl)-4-methyl-pentylamino]-4′-trifluoromethyl-biphenyl-3-yl}-4-methyl-pentanoic acid] | 220 | – |
| CC(C)CC(C(=O)O)c1cc(-c2ccc(C(F)(F)F)cc2)cc(N(C)c2ccc(F)cc2C(F)(F)F)c1 (stereo not drawn) [Example 11, 2-{5-[(4-Fluoro-2-trifluoromethyl-phenyl)-methyl-amino]-4′-trifluoromethyl-biphenyl-3-yl}-4-methyl-pentanoic acid] | – | inhibition at 0.3 µM (0.3 μM): 23% |
| CC(C)CCN(Cc1cc(F)cc(F)c1)c1cc(-c2ccc(C(F)(F)F)cc2)cc([C@@H](CC(C)C)C(=O)O)c1 [Compound 40, 2-{5-[(3,5-Difluoro-benzyl)-(3-methyl-butyl)-amino]-4′-trifluoromethyl-biphenyl-3-yl}-4-methyl-pentanoic acid] | 190 | – |
| CC(C)CC(C(=O)O)c1cc(NCc2ccc(F)cc2C(F)(F)F)cc(-c2ccc(C(F)(F)F)cc2)c1 (stereo not drawn) [Compound 51, 2-(5-(4-fluoro-2-(trifluoromethyl)benzylamino)-4′-(trifluoromethyl)biphenyl-3-yl)-4-methylpentanoic acid] | 640 | – |
| CC(C)CCN(Cc1cc(-c2ccc(C(F)(F)F)cc2)cc(C(CC(C)C)C(=O)O)c1)Cc1ccc(F)cc1C(F)(F)F (stereo not drawn) [Compound 60, 2-(5-{[(4-Fluoro-2-trifluoromethyl-benzyl)-(3-methyl-butyl)-amino]-methyl}-4′-trifluoromethyl-biphenyl-3-yl)-4-methyl-pentanoic acid] | 300 | – |
| CC(C)CCN(c1ccc(C(F)(F)F)cc1)c1cc(-c2ccc(C(F)(F)F)cc2)cc(C(CC(C)C)C(=O)O)c1 (stereo not drawn) [Example 20, 4-Methyl-2-{5-[(3-methyl-butyl)-(4-trifluoromethyl-phenyl)-amino]-4′-trifluoromethyl-biphenyl-3-yl}-pentanoic acid] | 170 | – |
